In US20110008328A1, “METHOD FOR CONTROLLING GLUCOSE UPTAKE AND INSULIN SENSITIVITY” (Pfizer Inc., priority 2007, published 2011):

Tests used:
[1] = Hyperinsulinemic euglycemic clamp in Zucker rats (rate of glucose disposal, Rd); type: in vivo, rat; conditions: obese Zucker (fa/fa) rats, post-Rx, pioglitazone 10 mg/kg/day in chow for 3 weeks; average ± standard error
Experimental: Peripheral insulin sensitivity (measured as the rate of glucose disposal, Rd) of the rat and human groups was measured using the hyperinsulinemic euglycemic clamp procedure. Clinical characteristics of the rats and humans are detailed in Table 1. OPN expression in adipose tissue was elevated in obese, insulin resistant rats (17-fold) and humans (4.6-fold) compared to insulin sensitive lean controls. […] In fact, when the pre-treatment patient data was combined, there was a significant correlation between adipose tissue OPN RNA levels and Rd (FIG. 1C).
Male C57Bl/6J WT mice (cat #000664) and OPN KO mice (B6.Cg-Spp1tm2blh/J, cat #004936) were purchased from Jackson Laboratories. […]
(§1) Insulin sensitivity was determined by hyperinsulinemic euglycemic clamp, as previously published (Hevener, A L, et al., 2001, Diabetes 50, 2316-2322). […] Plasma glucose specific activity was measured after deproteinization with barium hydroxide and zinc sulfate (Revers, R R, 1984, J Clin Invest 73, 664-672). Hepatic glucose output (HGO) and glucose disposal rate (GDR) were calculated for the basal period and the steady-state portion of the glucose clamp using the Steele equation for steady-state conditions (Steele R. Influences of glucose loading and of injected insulin on hepatic glucose output. Ann N Y Acad Sci 82: 420-430, 1959). […]

[2] = Body weight and fasting plasma analyses in Zucker rats; type: in vivo, rat; conditions: obese Zucker (fa/fa) rats, post-Rx, pioglitazone 10 mg/kg/day in chow for 3 weeks; average ± standard error
Description: Male C57Bl/6J WT mice (cat #000664) and OPN KO mice (B6.Cg-Spp1tm2blh/J, cat #004936) were purchased from Jackson Laboratories. This OPN KO mouse line has been backcrossed into the C57Bl/6J background >10 generations. Mouse diets were as follows: normal chow diet (12% kcal from fat; Purina 5001, LabDiet) and high fat diet (41% kcal from fat; TD96132, Harlan Teklad). Mice were 4-6 months of age and age-matched in all studies. Male lean Zucker (fa/+) and fatty Zucker (fa/fa) rats were purchased from Charles River. […] All rats were nine weeks of age at time of terminal metabolic studies and tissue harvest. All animals were housed 1-3 per cage under controlled light (12:12 light:dark) and climate conditions. Animals had unlimited access to food and water.
as §1
Plasma insulins were measured by radioimmune assay kit (Linco Research, St. Charles, Mo.). Plasma FFA levels were measured enzymatically using a commercially available kit (NEFA C; Wako Chemicals USA). Triglycerides were measured using the Triglyceride-SL Assay (Diagnostic Chemicals Ltd.). Cholesterol was measured using the Chol kit and Roche/Hitachi analyzer (Roche). Tissue lysates were analyzed by SDS-PAGE, western blotting and chemiluminescence and by ELISA. Signal intensities of chemiluminescence autoradiographs were densitometrically quantified using a digital Kodak 3D Imagestation and associated digital image analysis software (Kodak, New. Haven, Conn.). […]

[3] = Hyperinsulinemic-euglycemic clamp in human patients (rate of glucose disposal, Rd); type: in vivo; conditions: obese, insulin resistant patients, post-Rx, pioglitazone 45 mg/day for 3 months; average ± standard error
[4] = BMI and fasting plasma analyses in human patients; type: in vivo; conditions: post-Rx, pioglitazone 45 mg/day for 3 months, average ± standard error
Experimental: Baseline plasma samples were drawn and hyperinsulinemic-euglycemic clamps were performed in the morning after a 10 hr fast as previously described (Frias, J P et al., 2000, Diabetes Care 23, 64-69; Yu, J G et al., 2002, Diabetes 51, 2968-2974). The experimental protocol was approved by the Institutional Review Board of the University of California, San Diego. Informed written consent was obtained from each subject.
Plasma insulins were measured by radioimmune assay kit (Linco Research, St. Charles, Mo.). Plasma FFA levels were measured enzymatically using a commercially available kit (NEFA C; Wako Chemicals USA). Triglycerides were measured using the Triglyceride-SL Assay (Diagnostic Chemicals Ltd.). Cholesterol was measured using the Chol kit and Roche/Hitachi analyzer (Roche). Tissue lysates were analyzed by SDS-PAGE, western blotting and chemiluminescence and by ELISA. Signal intensities of chemiluminescence autoradiographs were densitometrically quantified using a digital Kodak 3D Imagestation and associated digital image analysis software (Kodak, New. Haven, Conn.). IL-1β, IL-12p70, IFNγ, IL-6, IL-10, Cxcl1 and TNFα levels in plasma and tissue lysates were measured using a multiplex (7-plex) ELISA (Meso Scale Discovery).

[5] = lean, insulin sensitive patients
[6] = obese, insulin resistant patients

## CCc1ccc(CCOc2ccc(CC3SC(=O)NC3=O)cc2)nc1 (stereo not shown) [pioglitazone]
[1]
  Glucose disposal, Rd: 30.6 ± 2.9 mg/kg/min
[2]
  Fasting plasma free fatty acids: 0.69 ± 0.29 mmol/L
  Fasting plasma glucose: 124.8 ± 4.0 ^ mg/dL
  Fasting plasma triglyceride: 108.0 ± 16.1 mg/dL
[3]
  Glucose disposal, Rd: 5.9 ± 0.5 mg/kg/min
[4]; [5]
  Fasting plasma free fatty acids: 414 ± 90 µM
  Fasting plasma glucose: 87.6 ± 3.1 mg/dL
  Fasting plasma insulin: 10.1 ± 2.2 pmol/L
  Fasting plasma triglyceride: 76.0 ± 9.2 mg/dL
[4]; [6]
  Fasting plasma free fatty acids: 434 ± 59 µM
  Fasting plasma glucose: 91.7 ± 2.5 mg/dL
  Fasting plasma insulin: 13.6 ± 1.6 pmol/L
  Fasting plasma triglyceride: 137.7 ± 7.2 mg/dL
